These results are taken from patent publication US20230150922A1, “Fluorinated Derivatives of Gabapentin and Methods of Use Thereof” (The General Hospital Corporation, priority 2020, published 2023).

One series can be described thus: PET imaging of mice. The following applies: FIG. 3F.
Series [1] is described as follows: PET imaging in rhesus macaques, baseline and gabapentin blocking scan. The following applies: for brain penetration by PET: ~5 mCi i.v.; for specific (displaceable) binding in brain by PET: coinjection of gabapentin (5 mg/kg).
Description: General imaging procedure: The rhesus monkey was sedated by intramuscular injection of ketamine in its housing facility. Following sedation, the animal was intubated and placed inside a primate transport cart. The animal was transported to the scanner room and laid on the scanner bed in supine position. […] Vital signs including heart rate, respiratory rate, SpO2, exhaled CO2, blood pressure and temperature were continuously monitored for the duration of the scan. One intravenous catheter was placed in the saphenous vein for administration of the tracer. One intraarterial catheter was placed in the posterior tibial artery for blood sampling. […] Selected plasma samples were analyzed for radiometabolites using radioHPLC. MRI was coregistered to the PET/CT and TACs extracted for each brain region defined on an MR atlas.
Study design: We scanned two male rhesus macaques. Each monkey was scanned two times. In the first session, we performed 3h dynamic scans (baseline) of each monkey. On the second session, the monkey underwent a blocking scan with coinjection of gabapentin (5 mg/kg).
Data analysis: Pharmacokinetic modeling using metabolite-corrected arterial input function was performed. Volume of distribution (VT), binding potential (BP) other parameters were calculated.
The conditions of series [2]: cited from earlier work; for patients with decreases in self-reported pain: oral.

Where two headings read alike, the source gives them in different places.

Protocol for PET imaging of mice: microPET/CT: mice and rats were anesthetized with isoflurane and positioned in the bed of a microPET/CT instrument. […] Animals were imaged using dynamic PET from 0 to 120 min to provide greatest contrast.
Data analysis: PET images were reconstructed using the scanner software and a rat brain atlas automatically fitted to the data using VivoQuant. Time activity curves (TACs) were extracted for multiple brain regions and spinal cord segments (lumbar, thoracic and cervical cord).

`NC[C@]1(CC(=O)O)CC[C@@H](F)CC1` [trans-4F-GBP]: in the series “PET imaging of mice”, the “brain entry by PET” value is recorded as “get into the brain”.

Regarding `NCC1(CC(=O)O)CCC([18F])CC1` (stereo not drawn) [trans-[^18F]4F-GBP, trans-[^18F]4-fluoro-gabapentin], the “brain penetration by PET” value in series [1] is recorded as “significant brain penetration”.

On to `NCC1(CC(=O)O)CCCCC1` [gabapentin], for which the “patients with decreases in self-reported pain” value in series [2] (diabetic neuropathy) was 52%; in series [2] (postherpetic neuralgia), 46%. In addition, in series [2] (trigeminal neuralgia, 43 out of 92 subjects), the “subjects with reduction in facial pain” value is 46%.

On to `NC[C@]1(CC(=O)O)CC[C@H]([18F])CC1` [cis-[^18F]4F-GBP, cis-[^18F]4-fluoro-gabapentin], for which the “specific (displaceable) binding in brain by PET” value in series [1] is reported as “clear specific (displaceable) binding”; in series [1] (listed as cis isomer), “partial displacement”. Also, the “brain penetration by PET” value in series [1] is “significant brain penetration”.

As for `NCC1(CC(=O)O)CCC(F)CC1` (stereo not drawn) [cis-4F-GBP], the “brain entry by PET” value in the series “PET imaging of mice” is “get into the brain”.
